Assay results: US7488491B2, “Use of glycosylceramides as adjuvants for vaccines against infections and cancer” (New York University, priority 2001, dated 2009)
“Also recorded” adds a separate entry of the source.

What was measured:
Vα14 NKT cells = conditions: mice; cited from earlier work
P. yoelii sporozoites [1] = assay: Anti-sporozoite antibody titers by indirect immunofluorescence assay (IFA); type: in vivo, Plasmodium yoelii; conditions: γ-spz-immunized BALB/c mice
Method: Sera of immunized mice were obtained just before their challenge with sporozoites, and their Ab titers were measured using P. yoelii sporozoites in an indirect immunofluorescence assay (IFA). In brief, P. yoelii sporozoites were placed on multispot glass slides, and air-dried. After 1 hour of incubation with the sera, diluted in PBS containing 1% BSA, the slides were washed with PBS and incubated 1 hour with FITC- labelled affinity purified goat anti-mouse Ab (Kirkegaard & Perry Laboratories, Gaithersburg, Md.). The slides were then washed and mounted in PBS containing 50% (v/v) glycerol and 1% (w/v) Evans blue to reduce bleaching. The highest serum dilution resulting in fluorescence of the sporozoites was considered to be the IFA titer. Measurement of Ab Isotype Level by ELISA.
(§1) The present inventors also determined the titers of anti-sporozoite antibodies using an immunofluorescence assay(IFA) of air-dried P. yoelii sporozoites, as well as the titers of antibody against the circumsporozoite (CS) protein, the major surface antigen of sporozoites, using ELISA. The antibody titers were identical among the groups of γ-spz-immunized mice regardless of whether or not they received α-GalCer (FIG. 1A).

[2] = test system: circumsporozoite (CS) protein; assay: Anti-CS antibody titers and isotypes by ELISA; type: in vivo, P. yoelii; conditions: γ-spz-immunized mice
Method: Sera of immunized mice were obtained prior to their challenge with sporozoites, and the levels of CS-specific IgM, IgG1, IgG2a, and IgE isotypes were measured using the Mouse Hybridoma Subtyping Kit (Boehringer Mannheim, Mannheim, Germany). Briefly, plates were coated with […] of B cell epitope (QGPGAP)2 (Charoenvit et al., J. Immunol., 146: 1020-1025, 1991) of the P. yoelii CS protein, blocked with PBS containing 1% BSA, and incubated for 1 hour with 1:5 dilution of sera from immunized and non-immunized mice. The plates were then washed and anti-mouse IgM, IgG1a, IgG2a (Boehringer Mannheim) and IgE (Southern Biotechnology Associates, Inc., Birmingham, Ala.) conjugated to peroxidase were added, followed by incubation with the substratre 2,2-Azino-di-[3-ethylbenzthiazoline sulfonate (6)], according the manufacture's instruction.
as §1

[3] = test system: nucleoprotein (NP) of the influenza A virus; assay: CD8+ T cell anti-influenza response after recombinant Sindbis virus expressing NP epitope; type: in vivo; conditions: suboptimal dose (10^5 p.f.u.) recombinant Sindbis virus expressing epitope TYQRTRALV, with α-GalCer
Text: In yet another specific embodiment, an antigen of the invention is influenza A virus-specific.

B 16-bearing mice = conditions: cited from earlier work
[4] = independently of dosage; cited from earlier work
[5] = independently of dosage; cited from earlier work; remark: listed apart in the source
P. yoeli = conditions: α-GalCer alone, cited from earlier work
P. berghei = conditions: mice; α-GalCer alone; cited from earlier work
[6] = mouse, in vivo; cited from earlier work
[7] = in vivo; cited from earlier work
[8] = test system: p18-specific CD8+ T cells (p18 protein of HIV); assay: ELISPOT assay of HIV p18-specific CD8+ T cells from immunized mice; conditions: mice immunized with CD8+ T cell epitope […] of p18 of HIV
Method: An ELISPOT assay was performed to determine the number of CS-specific CD4+ and CD8+ T cells, producing IFN-γ or IL-4 (Miyahira et al., J. Immunol. Methods, 181: 45-54, 1995). Briefly, 96 well nitrocellulose plates (Millipore, Bedford, Mass.) were coated with anti-mouse IFN-γ monoclonal antibodies (mAb), or anti-mouse IL-4 mAb. After overnight incubation at room temperature, the wells were washed repeatedly and blocked with culture medium for 1 hour at 37° C. […] After irradiating the peptide-pulsed target cells, the cells were added to the ELISPOT wells. Untreated target cells were used as negative controls. Serially diluted lymphocytes isolated from the spleen or lymph nodes of immunized mice were co-cultured with 1.5×10^5 target cells in the ELISPOT wells. After incubating the plates 24 h for IFN-γ detection or 48 h for IL-4 detection at 37° C. and 5% CO2, the plates were treated as previously described (Rodrigues et al., J. Immunol., 158: 1268-1274, 1997), and the number of spots corresponding to IFN-γ and IL-4 secreting cells determined.

P. yoelii sporozoites [9] = assay: Parasite rRNA in the liver after live sporozoite challenge of immunized mice (real-time RT-PCR)
P. yoelii sporozoites [10] = assay: Protection against blood infection (parasitemia in thin blood smears) after challenge with 50 viable sporozoites
Text: To further assess the adjuvant activity of α-GalCer co-administered with vaccines, parasitemia (i.e., the presence of parasites in the blood) was monitored daily by microscopic examination of thin blood smears. Briefly, BALB/c mice were immunized either intravenously with 1×10^4 γ-spz or subcutaneously with 1×10^7 p.f.u. of AdPyCS, doses which otherwise fail to confer protection against malaria, with or without α-GalCer treatment. Two weeks later, all mice were challenged with 50 viable P. yoelii sporozoites, and determined the occurrence of blood infection by monitoring parasitemia.
To determine the adjuvant effect of α-GalCer on the duration of protection against malaria, parasitemia (i.e., the presence of the parasites in the blood) was monitored daily via microscopic inspection of thin blood smears in two separate experiments. In experiment 1, two groups of mice, one treated with α-GalCer and the other untreated, were immunized with 1×10^4 γ-spz, a dose that fails to confer protection against malaria 2 weeks after immunization. Two weeks later, all mice were challenged with 50 viable P. yoelii sporozoites, and the occurrence of blood infection was determined by monitoring parasitemia. In experiment 2, two groups of mice, one treated with α-GalCer and the other untreated, were immunized with 1×10^5 γ-spz, a dose that induces complete protection 2 weeks after immunization but not 4 weeks after. Four weeks later, these immunized mice, as well as naive controls were challenged with 50 live sporozoites, and the course of infection was determined as described above.

[11] = BALB/c mice, 2 μg α-GalCer, 1×10^4 γ-spz i.v.
[12] = BALB/c mice, i.v. 1 × 10^4 γ-spz or s.c. 1 × 10^7 p.f.u. AdPyCS, with or without α-GalCer, challenge with 50 viable P. yoelii sporozoites two weeks later

Compound: CCCCCCCCCCCCCCCCCCCCCC[C@@H](O)C(=O)N[C@@H](COC1OC(CO)C(O)C(O)C1OC1OC(CO)C(O)C(O)C1O)[C@H](O)[C@H](O)CCCCCCCCCCCCCC (stereo partly drawn) [Galα1-2Galα1-1′Cer, (2S,3S,4R)-2-amino-1-O-(α-D-glucopyranosyl-(1-2)-α-D-galactopyranosyl)-N-[(R)-2-hydroxytetracosanoyl]-1,3,4-octadecanetriol]
- proliferation of Vα14 NKT cells, compared with α-GalCer (Vα14 NKT cells): stimulate proliferation of Vα14 NKT cells in mice, although with lower efficiency

Compound: CCCCCCCCCCCCCCCCCCCCCCCCCC(=O)N[C@@H](COC1OC(COC2OC(CO)C(O)C(O)C2O)C(O)C(O)C1O)[C@H](O)[C@H](O)CCCCCCCCCCCCCC (stereo partly drawn) [Galα1-6Galα1-1′Cer, (2S,3S,4R)-2-amino-1—O-(α-D-galactopyranosyl-(1-6)-α-D-galactopyranosyl)-N-hexacosanoyl-1,3,4-octadecanetriol]
- proliferation of Vα14 NKT cells, compared with α-GalCer (Vα14 NKT cells): stimulate proliferation of Vα14 NKT cells in mice, although with lower efficiency

Compound: CCCCCCCCCCCCCCCCCCCCCC[C@@H](O)C(=O)N[C@@H](COC1OC(CO)C(O)C(OC2OC([C@H](O)CO)C(O)C2O)C1O)[C@H](O)[C@H](O)CCCCCCCCCCCCCC (stereo partly drawn) [Galβ1-3Galα1-1′Cer, (2S,3S,4R)-2-amino-1-O-(β-D-galactofuranosyl-(1-4)-α-D-galactopyranosyl)-N-[(R)-2-hydroxytetracosanoyl]-1,3,4-octadecanetriol]
- proliferation of Vα14 NKT cells, compared with α-GalCer (Vα14 NKT cells): stimulate proliferation of Vα14 NKT cells in mice, although with lower efficiency

Compound: CCCCCCCCCCCCCCCCCCCCCCCCCC(=O)N[C@@H](CO[C@H]1O[C@H](CO)[C@H](O)[C@H](O)[C@H]1O)[C@H](O)[C@H](O)CCCCCCCCCCCCCC [α-GalCer, (2S,3S,4R)-1—O-(α-D-galactopyranosyl)-2-(N-hexacosanoylamino)-1,3,4-octadecanetriol]
- titers of anti-sporozoite antibodies (IFA), α-GalCer vs no α-GalCer (P. yoelii sporozoites [1]): identical
- IgE, IgG1, IgG2a or IgM isotype profiles of anti-CS antibodies, α-GalCer-treated vs untreated [2]: no significant differences
- titers of antibody against the CS protein (ELISA), α-GalCer vs no α-GalCer [2]: identical
- CD8+ T cell anti-influenza response [3]: significantly enhances
- mice bearing tumors cured (B 16-bearing mice; 100 μg/kg KRN7000): 60%
- antimetastatic activities vs OK432, Lentinan and Mitomycin C (B 16-bearing mice; B 16-bearing mice): stronger antimetastatic activities
- toxicity in rodents [4]: does not induce toxicity
- toxicity in monkeys [5]: does not induce toxicity
- anti-malaria activity (inhibition of intra-hepatocytic stages), P. yoeli (P. yoeli; mice): strong anti-malaria activity
- parasite development in the liver of mice lacking either IFN-γ or the IFN-γ receptor (P. yoeli): unable to inhibit parasite development
- parasites in the liver, α-GalCer two days prior to challenge with live sporozoites (P. yoeli): completely eliminates the parasites from the liver
- protection against malaria in mice lacking either CD1d or Vα14 NKT cells (P. yoeli): failed to protect
- anti-malaria activity (inhibition of intra-hepatocytic stages), P. berghei (P. berghei): strong anti-malaria activity
- liver enzyme activities [6]: transient elevation of liver enzyme activities
- complications in human trials [7]: without a notable complication
- level of HIV-specific CD8+ T cell response vs immunized without α-GalCer [8]: ~3 times
- parasite load in the livers, times smaller than with γ-spz alone (P. yoelii sporozoites [9]; BALB/c mice, 2 μg α-GalCer with 1×10^4 γ-spz i.v., challenge 1×10^4 live sporozoites two weeks later): 10 times
- level of protective anti-malaria immunity, α-GalCer on the same day as γ-spz (P. yoelii sporozoites [9]; [11]): highest level of protective anti-malaria immunity
- level of protective immunity, α-GalCer two days after γ-spz immunization (P. yoelii sporozoites [9]; [11]): did not significantly enhance
- protective immunity, α-GalCer two days prior to γ-spz immunization (P. yoelii sporozoites [9]; [11]): completely abolished; also recorded: almost completely abolishes
- protection augmented relative to control, AdPyCS (P. yoelii sporozoites [9]; BALB/c mice, s.c. sub-optimal dose AdPyCS with α-GalCer same day): ~10 times
- protection enhanced, SIN(Mal) (P. yoelii sporozoites [9]; BALB/c mice, s.c. sub-optimal dose SIN(Mal) with α-GalCer same day): 3 times
- γ-spz-induced protective immunity in CD1d-deficient mice (P. yoelii sporozoites [9]; CD1d-deficient mice, BALB/c background, 1×10^4 γ-spz with α-GalCer): failed to enhance
- γ-spz-induced protective immunity in Jα281-deficient mice (P. yoelii sporozoites [9]; Jα281-deficient mice (lack Vα14 NKT cells), 1×10^4 γ-spz with α-GalCer): failed to enhance
- α-GalCer-treated, sporozoite-immunized mice protected, experiment 1 (P. yoelii sporozoites [10]; 1×10^4 γ-spz, challenge with 50 viable sporozoites two weeks later): nine out of ten
- α-GalCer-treated, sporozoite-immunized mice protected, experiment 2 (P. yoelii sporozoites [10]; 1×10^5 γ-spz, challenge with 50 live sporozoites four weeks later): nine out of ten
- % protection (no parasitemia) (P. yoelii sporozoites [10]; [12]): 0%
- Number of mice protected/number challenged (P. yoelii sporozoites [10]; [12]): 0/30
- α-GalCer-treated, γ-spz-immunized mice protected (P. yoelii sporozoites [10]; BALB/c, 1×10^4 γ-spz i.v., challenge 50 viable sporozoites two weeks later): 28 out of 30
- protective effect of sub-optimal dose of AdPyCS with α-GalCer (P. yoelii sporozoites [10]; BALB/c, 1×10^7 p.f.u. AdPyCS s.c., challenge 50 viable sporozoites): strongly enhanced
- protection by α-GalCer alone (P. yoelii sporozoites [10]; BALB/c, no immunogen, challenge 50 viable sporozoites): failed to protect

Compound: CCCCCCCCCCCCCCCCCCCCCCCCCC(=O)N[C@@H](CO[C@H]1O[C@H](CO)[C@@H](O)[C@H](O)[C@H]1O)[C@H](O)[C@H](O)CCCCCCCCCCCCCC [α-GlcCer, (2S,3S,4R)-1—O-(α-D-glucopyranosyl)-N-hexacosanoyl-2-amino-1,3,4-octadecanetriol]
- proliferation of Vα14 NKT cells, compared with α-GalCer (Vα14 NKT cells): stimulate proliferation of Vα14 NKT cells in mice, although with lower efficiency
